Reference: patent US20260216176A1, “USE OF PCLX-001 OR PCLX-002 AS A RADIOSENSITIZER” (ACYLEX PHARMACEUTICALS INC., priority 2023, published 2026)
Read-outs that look alike come from different tables or passages of the source.

What was measured:
[1] = Plasma pharmacokinetics in phase I clinical trial NCT04836195 (oral daily dose); format: in vivo, human; settings: for AUC(0-t) / Cmax / Tmax / half-life: human, plasma; for AUC(0-t): read-out: AUC0-24 (mean, SD); for Cmax: read-out: Cmax (mean, SD)
Method: A phase I, multicenter, nonrandomized, open-label study of zelenirstat, entitled “Phase I Trial of PCLX-001 in B-cell Non-Hodgkin Lymphoma and Advanced Solid Malignancies” (reference 6), is being conducted and is registered at clinicaltrials.gov as NCT04836195. In this study, PCLX-001 was administered as an oral daily dose every morning to patients with advanced cancer, on 28-day cycles, until toxicity or progressive disease. Peripheral blood samples were collected over six time points in the first 8 hours of cycle 1 day 1, and again on cycle 1 day 15, with pretreatment day 1 levels obtained with every subsequent cycle. PCLX-001/zelenirstat plasma concentrations were quantified using a validated ultra-performance liquid chromatography with tandem mass spectrometry detection and analyzed using a nonlinear mixed-effects model.

[2] = system: U251 glioblastoma cell line; assay: Alamar Blue cell viability assay of radiosensitization (PCLX-001 pre-treatment plus radiation); format: cell-based, human
Method: Cancer cell lines of human origin were cultivated in the suitable culture medium enriched with 10% fetal bovine serum (FBS) and a 1% mixture of penicillin-streptomycin. These were incubated at a temperature of 37° C. in a 5% CO2 humid environment. The cells were sub-cultured upon reaching a confluence of 80% with the aid of 0.25% trypsin-EDTA [Freshney, R. I., 2010. Culture of animal cells: a manual of basic technique and specialized applications. John Wiley & Sons].
PCLX-001 was prepared at several concentrations for use as a radiosensitizing drug (serial dilutions from 1000 nM, including control 0 nM) in culture media. The cancer cells cultures were then treated with the aforementioned PCLX-001 concentrations and left for 24 h, 48 h, 72 h, and 96 h to allow for maximum pharmacodynamic effect. The cells were then plated into 96-well plates at 5000 cells per well and left to attach overnight while continuing to incubate in the drug/media cocktail.
Upon completion of the PCLX-001 incubation period, a single radiation dose was administered to the cells using a preclinical irradiator. The quantity of radiation was decided based on the results from prior optimization tests [Hall, E. J., Giaccia, A. J., 2012. Radiobiology for the radiologist. Lippincott Williams & Wilkins.]. The radiation doses included 0, 2, and 4 Gy, which corresponds to the most common clinical radiation dose fractions used.
72 hours post-radiation, an Alamar Blue Assay was conducted to determine cell viability. Alamar Blue dye was added to the media (10% v/v) and the plates were incubated at 37° C. for 4 hours. Using a fluorescence plate reader, fluorescence was measured at excitation/emission wavelengths of 560/590 nm. To quantify cell viability, the results were normalized to the data from untreated controls [Ahmed, S. A., et al., 1994].
The data were shown as mean±standard deviation (SD) gathered from three or more independent tests. A one-way ANOVA followed by a post hoc Tukey test was used for statistical analyses to find significant disparities between treatment groups. […]

[3] = oral, 20 mg, 20 mg, Cycle 1 D15
[4] = oral, 40 mg, 40 mg, Cycle 1 D15
[5] = oral, 70 mg, 70 mg, Cycle 1 D15
[6] = oral, 100 mg, 100 mg, Cycle 1 D1
[7] = oral, 100 mg, 100 mg, Cycle 1 D15
[8] = oral, 140 mg, 140 mg, Cycle 1 D1
[9] = oral, 140 mg, 140 mg, Cycle 1 D15
[10] = oral, 210 mg, 210 mg, Cycle 1 D1
[11] = oral, 210 mg, 210 mg, Cycle 1 D15

Work on `Cc1c(N[S+](=O)(O)c2c(Cl)cc(-c3ccnc(N4CCNCC4)c3)cc2Cl)c(CC(C)C)nn1C` [PCLX-001] yielded an AUC(0-t) ([1]; oral, 20 mg, 20 mg, Cycle 1 D1) of 1580 ng·h/mL, a Cmax ([1]; oral, 20 mg, 20 mg, Cycle 1 D1) of 276 ng/mL and a Tmax ([1]; oral, 20 mg, 20 mg, Cycle 1 D1, read-out: Tmax (median, range)) of 2 h. For the same molecule, the half-life ([1]; oral, 20 mg, 20 mg, Cycle 1 D1, read-out: t½ (mean, SD) (converted)) was 6.7 h, the AUC(0-t) [1, 3] was 2070 ng·h/mL and the Cmax [1, 3] was 359 ng/mL. The Tmax ([1]; oral, 20 mg, 20 mg, Cycle 1 D15, read-out: Tmax (median, range)) was 1 h, the half-life ([1]; oral, 20 mg, 20 mg, Cycle 1 D15, read-out: t½ (mean, SD) (converted)) was 7.4 h and the AUC(0-t) ([1]; oral, 40 mg, 40 mg, Cycle 1 D1) was 4820 ng·h/mL. For the same molecule, the Cmax ([1]; oral, 40 mg, 40 mg, Cycle 1 D1) was 848 ng/mL, the Tmax ([1]; oral, 40 mg, 40 mg, Cycle 1 D1, read-out: Tmax (median, range)) was 0.9 h and the half-life ([1]; oral, 40 mg, 40 mg, Cycle 1 D1, read-out: t½ (mean, SD) (converted)) was 9.2 h. The AUC(0-t) [1, 4] was 7060 ng·h/mL, the Cmax [1, 4] was 774 ng/mL and the Tmax ([1]; oral, 40 mg, 40 mg, Cycle 1 D15, read-out: Tmax (median, range)) was 2.2 h. The half-life ([1]; oral, 40 mg, 40 mg, Cycle 1 D15, read-out: t½ (mean, SD) (converted)) was 9.7 h, the AUC(0-t) ([1]; oral, 70 mg, 70 mg, Cycle 1 D1) was 5650 ng·h/mL and the Cmax ([1]; oral, 70 mg, 70 mg, Cycle 1 D1) was 665 ng/mL. For the same molecule, the Tmax ([1]; oral, 70 mg, 70 mg, Cycle 1 D1, read-out: Tmax (median, range)) was 3.9 h, the half-life ([1]; oral, 70 mg, 70 mg, Cycle 1 D1, read-out: t½ (mean, SD) (converted)) was 9.5 h and the AUC(0-t) [1, 5] was 6610 ng·h/mL. The Cmax [1, 5] was 467 ng/mL, the Tmax ([1]; oral, 70 mg, 70 mg, Cycle 1 D15, read-out: Tmax (median, range)) was 4.1 h and the AUC(0-t) [1, 6] was 18900 ng·h/mL. For the same molecule, the Cmax [1, 6] was 2190 ng/mL, the Tmax ([1]; oral, 100 mg, 100 mg, Cycle 1 D1, read-out: Tmax (median, range)) was 2 h and the half-life ([1]; oral, 100 mg, 100 mg, Cycle 1 D1, read-out: t½ (mean, SD) (converted)) was 8 h. The AUC(0-t) [1, 7] was 24700 ng·h/mL, the Cmax [1, 7] was 2300 ng/mL and the Tmax ([1]; oral, 100 mg, 100 mg, Cycle 1 D15, read-out: Tmax (median, range)) was 4 h. The half-life ([1]; oral, 100 mg, 100 mg, Cycle 1 D15, read-out: t½ (mean, SD) (converted)) was 12 h, the AUC(0-t) [1, 8] was 11900 ng·h/mL and the Cmax [1, 8] was 1770 ng/mL. For the same molecule, the Tmax ([1]; oral, 140 mg, 140 mg, Cycle 1 D1, read-out: Tmax (median, range)) was 1 h, the half-life ([1]; oral, 140 mg, 140 mg, Cycle 1 D1, read-out: t½ (mean, SD) (converted)) was 7.2 h and the AUC(0-t) [1, 9] was 8150 ng·h/mL. For the same molecule, the Cmax [1, 9] was 1340 ng/mL, the Tmax ([1]; oral, 140 mg, 140 mg, Cycle 1 D15, read-out: Tmax (median, range)) was 2 h and the half-life ([1]; oral, 140 mg, 140 mg, Cycle 1 D15, read-out: t½ (mean, SD) (converted)) was 10.4 h. It also gave an AUC(0-t) [1, 10] of 14700 ng·h/mL, a Cmax [1, 10] of 1770 ng/mL and a Tmax ([1]; oral, 210 mg, 210 mg, Cycle 1 D1, read-out: Tmax (median, range)) of 3 h. It also gave a half-life ([1]; oral, 210 mg, 210 mg, Cycle 1 D1, read-out: t½ (mean, SD) (converted)) of 7.8 h, an AUC(0-t) [1, 11] of 27600 ng·h/mL and a Cmax [1, 11] of 2940 ng/mL. It also gave a Tmax ([1]; oral, 210 mg, 210 mg, Cycle 1 D15, read-out: Tmax (median, range)) of 2 h, a half-life ([1]; oral, 210 mg, 210 mg, Cycle 1 D15, read-out: t½ (mean, SD) (converted)) of 7.7 h and a Tmax ([1]; oral, patients taking proton pump inhibitors (PPI), read-out: maximum Tmax value observed) of roughly 8 h. It also gave a Tmax ([1]; oral, patients taking proton pump inhibitors (PPI), read-out: median Tmax range) of 1 to 6 h, a half-life ([1]; oral, C1D1, read-out: mean terminal half-life across the dose cohorts) of 6.7 to 9.5 h and a Tmax ([1]; po, single oral 20 mg to 210 mg, C1D1, read-out: median Tmax values across the dose cohorts) of 1 to 4 h. For the same molecule, the “accumulation following repeated administration” value ([1]; majority of patients, 14 days) was less than 2 fold, the “accumulation beyond Day 15” value ([1]; pre-dose concentrations over multiple cycles) was “no accumulation was apparent” and the dose-enhancement factor ([2]; U251, below 25 nM) was “below 1.2”. The “toxicity of the drug itself versus radiotherapy effect” value ([2]; above 150 nM) was “toxicity of the drug itself exceeds the effect of typical radiotherapy dose-per-fraction's effect” and the “increase of radiotherapy's effectiveness” value ([2]; cancer cell line tested (human glioblastoma)) was “about 80%”.
